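Following 48 hours of exposure in 96-well plates, responses at five concentrations were used to interpolate endpoints linearly. GI50 = concentration required for 50% inhibition of growth. The concentration for full growth arrest is given as TGI.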
How the values were obtained:
Assay in all cases: growth of human tumour cells (NCI), 48 h
[1] = tested on: SW-620 colon
[2] = tested on: CAKI-1 renal
[3] = tested on: HT29 colon
[4] = tested on: SNB-75 CNS
[5] = tested on: MDA-MB-435
[6] = tested on: ACHN renal
[7] = tested on: PC-3 prostate
[8] = tested on: K-562 leukemia
[9] = tested on: SK-MEL-5 melanoma
[10] = tested on: OVCAR-3 ovarian
[11] = tested on: NCI-H226 lung
[12] = tested on: HCT-15 colon
[13] = tested on: NCI/ADR-RES ovarian
[14] = tested on: IGROV1 ovarian
[15] = tested on: NCI-H522 lung
[16] = tested on: HS 578T breast
[17] = tested on: HL-60(TB) leukemia
[18] = tested on: SK-MEL-2 melanoma
[19] = tested on: SF-295 CNS
[20] = tested on: MCF7 breast
[21] = tested on: DU-145 prostate
[22] = tested on: MALME-3M melanoma
[23] = tested on: NCI-H460 lung
[24] = tested on: UACC-257 melanoma
[25] = tested on: EKVX NSCLC
[26] = tested on: LOX IMVI melanoma
[27] = tested on: A549 NSCLC
[28] = tested on: T-47D breast
[29] = tested on: SNB-19 CNS
[30] = tested on: MOLT-4 leukemia
[31] = tested on: HOP-62 NSCLC
[32] = tested on: COLO 205 colon
[33] = tested on: CCRF-CEM leukemia
[34] = tested on: U251 CNS
[35] = tested on: KM12 colon
[36] = tested on: OVCAR-8 ovarian
[37] = tested on: MDA-MB-231 breast
[38] = tested on: UO-31 renal
[39] = tested on: NCI-H23 lung
[40] = tested on: OVCAR-5 ovarian
[41] = tested on: BT-549 breast
[42] = tested on: TK-10 renal
[43] = tested on: RXF 393 renal
[44] = tested on: SK-MEL-28 melanoma
[45] = tested on: SN12C renal
[46] = tested on: HCC-2998 colon
[47] = tested on: SF-268 CNS
[48] = tested on: M14 melanoma
[49] = tested on: SF-539 CNS
[50] = tested on: HCT-116 colon
[51] = tested on: 786-0 renal
[52] = tested on: RPMI-8226 leukemia
[53] = tested on: OVCAR-4 ovarian
[54] = tested on: HOP-92 NSCLC
[55] = tested on: SR leukemia
[56] = tested on: A498 renal
[57] = tested on: UACC-62 melanoma
[58] = tested on: SK-OV-3 ovarian

`CNC(=O)c1nn(C)c2c1C(C)(C)Cc1cnc(Nc3ccc(N4CCN(C)CC4)cc3)nc1-2` showed a GI50 [1] of 0.608 µM, a TGI [1] greater than 10 µM and a GI50 [2] of 0.114 µM. For the same molecule, the TGI [2] was 1.22 µM, the GI50 [3] was 0.94 µM and the TGI [3] was greater than 10 µM. For the same molecule, the GI50 [4] was 0.304 µM, the TGI [4] was 2.29 µM and the GI50 [5] was 0.693 µM. For the same molecule, the TGI [5] was greater than 10 µM, the GI50 [6] was 0.424 µM and the TGI [6] was 8.62 µM. For the same molecule, the GI50 [7] was 0.368 µM, the TGI [7] was greater than 10 µM and the GI50 [8] was 0.356 µM. For the same molecule, the TGI [8] was greater than 7.77 µM, the GI50 [9] was 7.44 µM and the TGI [9] was greater than 10 µM. The GI50 [10] was 0.966 µM, the TGI [10] was greater than 10 µM and the GI50 [11] was 0.958 µM. For the same molecule, the TGI [11] was greater than 8.57 µM, the GI50 [12] was 0.337 µM and the TGI [12] was greater than 10 µM. It also gave a GI50 [13] of 3 µM, a TGI [13] greater than 10 µM and a GI50 [14] of 0.182 µM. It also gave a TGI [14] of 1.6 µM, a GI50 [15] of 0.327 µM and a TGI [15] greater than 5.54 µM. It also gave a GI50 [16] of 0.369 µM, a TGI [16] greater than 2.37 µM and a GI50 [17] of 0.695 µM. It also gave a TGI [17] greater than 10 µM, a GI50 [18] of 0.432 µM and a TGI [18] greater than 8.25 µM. It also gave a GI50 [19] of 1.09 µM, a TGI [19] greater than 10 µM and a GI50 [20] of 0.238 µM. The TGI [20] was greater than 10 µM, the GI50 [21] was 0.995 µM and the TGI [21] was greater than 10 µM. For the same molecule, the GI50 [22] was 0.431 µM, the TGI [22] was greater than 9.24 µM and the GI50 [23] was 0.408 µM. It also gave a TGI [23] greater than 10 µM, a GI50 [24] of 0.863 µM and a TGI [24] greater than 9.15 µM. For the same molecule, the GI50 [25] was 1.93 µM, the TGI [25] was greater than 10 µM and the GI50 [26] was 0.606 µM. It also gave a TGI [26] greater than 10 µM, a GI50 [27] of 0.682 µM and a TGI [27] greater than 10 µM. It also gave a GI50 [28] of 0.261 µM, a TGI [28] greater than 5.55 µM and a GI50 [29] of 0.322 µM. It also gave a TGI [29] greater than 10 µM, a GI50 [30] of 0.546 µM and a TGI [30] greater than 5.29 µM. It also gave a GI50 [31] of 0.435 µM, a TGI [31] of 9.84 µM and a GI50 [32] of 0.313 µM. For the same molecule, the TGI [32] was 3.12 µM, the GI50 [33] was 1.58 µM and the TGI [33] was greater than 10 µM. The GI50 [34] was 0.846 µM, the TGI [34] was greater than 10 µM and the GI50 [35] was 0.347 µM. The TGI [35] was greater than 10 µM, the GI50 [36] was 3.17 µM and the TGI [36] was greater than 10 µM. The GI50 [37] was 0.523 µM, the TGI [37] was greater than 10 µM and the GI50 [38] was 0.169 µM. The TGI [38] was 2.39 µM, the GI50 [39] was 0.966 µM and the TGI [39] was greater than 7.26 µM. It also gave a GI50 [40] of 0.504 µM, a TGI [40] greater than 9.01 µM and a GI50 [41] of 1.61 µM. For the same molecule, the TGI [41] was greater than 8.77 µM, the GI50 [42] was 0.116 µM and the TGI [42] was greater than 10 µM. It also gave a GI50 [43] of 0.343 µM, a TGI [43] greater than 4.5 µM and a GI50 [44] of 2.32 µM. For the same molecule, the TGI [44] was greater than 10 µM, the GI50 [45] was 0.705 µM and the TGI [45] was greater than 10 µM. For the same molecule, the GI50 [46] was 2.47 µM, the TGI [46] was greater than 10 µM and the GI50 [47] was 1.34 µM. For the same molecule, the TGI [47] was greater than 10 µM, the GI50 [48] was 0.248 µM and the TGI [48] was greater than 8.53 µM. The GI50 [49] was 1.39 µM, the TGI [49] was greater than 6.03 µM and the GI50 [50] was 0.346 µM. It also gave a TGI [50] greater than 9.48 µM, a GI50 [51] of 0.649 µM and a TGI [51] greater than 10 µM. For the same molecule, the GI50 [52] was 0.475 µM, the TGI [52] was greater than 3.98 µM and the GI50 [53] was 0.683 µM. For the same molecule, the TGI [53] was greater than 8.34 µM, the GI50 [54] was 0.174 µM and the TGI [54] was greater than 2.35 µM. For the same molecule, the GI50 [55] was 0.452 µM, the TGI [55] was greater than 5.71 µM and the GI50 [56] was 0.139 µM. It also gave a TGI [56] of 0.861 µM, a GI50 [57] of 0.486 µM and a TGI [57] greater than 10 µM. It also gave a GI50 [58] of 0.209 µM and a TGI [58] of 1.54 µM.

`COC(=O)C1(C)Cc2cc(OC(C)=O)c(OC(C)=O)cc2N1` (stereo unspecified) was tested, and the GI50 [1] was 8.83 µM, the TGI [1] was 28.7 µM and the GI50 [2] was 2.98 µM. For the same molecule, the TGI [2] was 11.3 µM, the GI50 [3] was 13 µM and the TGI [3] was 56.7 µM. It also gave a GI50 [4] of 26.3 µM, a TGI [4] greater than 96.7 µM and a GI50 [5] of 6.29 µM. The TGI [5] was 61.5 µM, the GI50 [6] was 3.42 µM and the TGI [6] was 19.9 µM. For the same molecule, the GI50 [7] was 9.64 µM, the TGI [7] was greater than 72.6 µM and the GI50 [8] was 3.67 µM. It also gave a TGI [8] greater than 100 µM, a GI50 [9] of 13.9 µM and a TGI [9] of 27.8 µM. It also gave a GI50 [10] of 6.97 µM, a TGI [10] of 23.8 µM and a GI50 [11] of 14.8 µM. The TGI [11] was 60 µM, the GI50 [12] was 2.64 µM and the TGI [12] was 12.9 µM. For the same molecule, the GI50 [13] was 16 µM, the TGI [13] was greater than 75.5 µM and the GI50 [14] was 5.93 µM. The TGI [14] was 13.9 µM, the GI50 [15] was 0.633 µM and the TGI [15] was 1.8 µM. It also gave a TGI [16] greater than 24.1 µM, a GI50 [17] of 2.42 µM and a TGI [17] greater than 24.2 µM. It also gave a GI50 [18] of 5.92 µM, a TGI [18] of 17.9 µM and a GI50 [19] of 67.5 µM. The TGI [19] was greater than 100 µM, the GI50 [20] was 3.74 µM and the TGI [20] was 21.6 µM. It also gave a GI50 [21] of 14.1 µM, a TGI [21] greater than 58.9 µM and a GI50 [22] of 3.18 µM. For the same molecule, the TGI [22] was 15.4 µM, the GI50 [23] was 32.8 µM and the TGI [23] was greater than 100 µM. The GI50 [24] was 1.68 µM, the TGI [24] was 11.4 µM and the GI50 [25] was 15.7 µM. It also gave a TGI [25] of 49 µM, a GI50 [26] of 5.06 µM and a TGI [26] of 19.7 µM. The GI50 [27] was 11.6 µM, the TGI [27] was 29.4 µM and the GI50 [28] was 4.55 µM. It also gave a TGI [28] greater than 37.8 µM, a GI50 [29] greater than 61.9 µM and a TGI [29] greater than 100 µM. It also gave a GI50 [30] of 8.18 µM, a TGI [30] greater than 60.2 µM and a GI50 [31] greater than 100 µM. It also gave a TGI [31] greater than 100 µM, a GI50 [32] of 6.49 µM and a TGI [32] greater than 40.9 µM. The GI50 [33] was 3.42 µM, the TGI [33] was greater than 46 µM and the GI50 [34] was 8.09 µM. The TGI [34] was 21.9 µM, the GI50 [35] was 20.2 µM and the TGI [35] was 51.6 µM. The GI50 [36] was 14.4 µM, the TGI [36] was 70.2 µM and the GI50 [37] was 17.8 µM. For the same molecule, the TGI [37] was 56.5 µM, the GI50 [38] was 3.59 µM and the TGI [38] was 21.9 µM. For the same molecule, the GI50 [39] was 18.2 µM, the TGI [39] was 62.5 µM and the GI50 [40] was 20 µM. The TGI [40] was 47 µM, the GI50 [41] was 4.93 µM and the TGI [41] was 22 µM. The GI50 [42] was 11.1 µM, the TGI [42] was 44.1 µM and the GI50 [43] was 2.34 µM. For the same molecule, the TGI [43] was 8.48 µM, the GI50 [44] was 13.8 µM and the TGI [44] was 32.3 µM. The GI50 [45] was 17 µM, the TGI [45] was greater than 81.8 µM and the GI50 [46] was 17.8 µM. It also gave a TGI [46] of 33 µM, a GI50 [47] of 16.1 µM and a TGI [47] of 52.6 µM. The GI50 [48] was 15.6 µM, the TGI [48] was 54.4 µM and the GI50 [49] was 15.4 µM. For the same molecule, the TGI [49] was 33.2 µM, the GI50 [50] was 3.96 µM and the TGI [50] was 15.5 µM. For the same molecule, the GI50 [51] was 24.1 µM, the TGI [51] was 62.2 µM and the GI50 [52] was 1.87 µM. For the same molecule, the TGI [52] was 10.6 µM, the GI50 [53] was 9.34 µM and the TGI [53] was 22.9 µM. The GI50 [54] was 2.19 µM, the TGI [54] was 8.69 µM and the GI50 [55] was 1.65 µM. It also gave a TGI [55] of 4.76 µM, a GI50 [56] of 37.8 µM and a TGI [56] greater than 90.7 µM. For the same molecule, the GI50 [57] was 4.09 µM, the TGI [57] was 17.5 µM and the GI50 [58] was greater than 87.4 µM. For the same molecule, the TGI [58] was greater than 100 µM.

— PubChem BioAssay (NCI)
